Data from ChEMBL document CHEMBL1201862, “PubChem BioAssay data set” (2004).
Blank lines part the entries; values can stand above or below the molecule they belong to. Calls of active or inactive are those of the source.

How the values were obtained:
[1] = target: T1, Protein skinhead-1 (Caenorhabditis elegans, UniProt P34707); assay type: functional
T1 sequence (P34707 whole entry): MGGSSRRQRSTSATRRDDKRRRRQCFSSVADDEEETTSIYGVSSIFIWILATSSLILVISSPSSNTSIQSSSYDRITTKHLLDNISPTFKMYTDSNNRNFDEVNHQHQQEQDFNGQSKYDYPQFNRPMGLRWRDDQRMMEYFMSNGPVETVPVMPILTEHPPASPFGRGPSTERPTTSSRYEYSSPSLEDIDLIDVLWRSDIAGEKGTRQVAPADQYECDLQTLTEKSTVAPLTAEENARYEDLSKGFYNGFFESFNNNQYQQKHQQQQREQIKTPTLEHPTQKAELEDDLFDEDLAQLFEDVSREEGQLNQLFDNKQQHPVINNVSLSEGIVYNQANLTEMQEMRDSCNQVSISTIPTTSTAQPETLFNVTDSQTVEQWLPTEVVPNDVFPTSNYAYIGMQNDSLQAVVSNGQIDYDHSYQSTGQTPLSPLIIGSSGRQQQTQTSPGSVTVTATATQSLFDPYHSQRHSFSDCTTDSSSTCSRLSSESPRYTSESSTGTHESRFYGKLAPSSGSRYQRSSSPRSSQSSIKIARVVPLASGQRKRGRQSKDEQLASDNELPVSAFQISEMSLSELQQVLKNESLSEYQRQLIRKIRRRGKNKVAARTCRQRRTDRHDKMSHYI

[2] = target: Cytochrome P450 2D6 (Homo sapiens, UniProt P10635);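 further: CYP2D6 member of a cytochrome P450 panel assay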
Cytochrome P450 2D6, sequence (P10635 whole entry): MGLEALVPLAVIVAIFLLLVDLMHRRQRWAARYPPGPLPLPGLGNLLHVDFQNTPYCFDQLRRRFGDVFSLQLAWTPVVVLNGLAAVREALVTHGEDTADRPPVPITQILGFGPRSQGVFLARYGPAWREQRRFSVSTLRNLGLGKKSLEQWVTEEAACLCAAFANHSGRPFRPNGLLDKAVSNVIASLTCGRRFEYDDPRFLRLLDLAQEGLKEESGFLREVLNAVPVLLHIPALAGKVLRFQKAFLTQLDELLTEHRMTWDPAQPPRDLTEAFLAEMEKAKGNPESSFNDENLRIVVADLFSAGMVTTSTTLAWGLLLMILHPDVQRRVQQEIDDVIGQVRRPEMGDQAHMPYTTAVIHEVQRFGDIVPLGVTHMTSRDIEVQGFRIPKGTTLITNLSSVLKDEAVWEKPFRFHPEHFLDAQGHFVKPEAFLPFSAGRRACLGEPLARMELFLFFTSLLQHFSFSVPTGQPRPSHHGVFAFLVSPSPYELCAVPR

[3] = target: Ephrin type-A receptor 4 (Mus musculus, UniProt Q03137); experiment: inhibitors of EphA4 binding to KYL peptide, primary screen, biochemical, colorimetric, mouse EphA4 (AID 689); assay type: functional
Ephrin type-A receptor 4, sequence (Q03137 whole entry): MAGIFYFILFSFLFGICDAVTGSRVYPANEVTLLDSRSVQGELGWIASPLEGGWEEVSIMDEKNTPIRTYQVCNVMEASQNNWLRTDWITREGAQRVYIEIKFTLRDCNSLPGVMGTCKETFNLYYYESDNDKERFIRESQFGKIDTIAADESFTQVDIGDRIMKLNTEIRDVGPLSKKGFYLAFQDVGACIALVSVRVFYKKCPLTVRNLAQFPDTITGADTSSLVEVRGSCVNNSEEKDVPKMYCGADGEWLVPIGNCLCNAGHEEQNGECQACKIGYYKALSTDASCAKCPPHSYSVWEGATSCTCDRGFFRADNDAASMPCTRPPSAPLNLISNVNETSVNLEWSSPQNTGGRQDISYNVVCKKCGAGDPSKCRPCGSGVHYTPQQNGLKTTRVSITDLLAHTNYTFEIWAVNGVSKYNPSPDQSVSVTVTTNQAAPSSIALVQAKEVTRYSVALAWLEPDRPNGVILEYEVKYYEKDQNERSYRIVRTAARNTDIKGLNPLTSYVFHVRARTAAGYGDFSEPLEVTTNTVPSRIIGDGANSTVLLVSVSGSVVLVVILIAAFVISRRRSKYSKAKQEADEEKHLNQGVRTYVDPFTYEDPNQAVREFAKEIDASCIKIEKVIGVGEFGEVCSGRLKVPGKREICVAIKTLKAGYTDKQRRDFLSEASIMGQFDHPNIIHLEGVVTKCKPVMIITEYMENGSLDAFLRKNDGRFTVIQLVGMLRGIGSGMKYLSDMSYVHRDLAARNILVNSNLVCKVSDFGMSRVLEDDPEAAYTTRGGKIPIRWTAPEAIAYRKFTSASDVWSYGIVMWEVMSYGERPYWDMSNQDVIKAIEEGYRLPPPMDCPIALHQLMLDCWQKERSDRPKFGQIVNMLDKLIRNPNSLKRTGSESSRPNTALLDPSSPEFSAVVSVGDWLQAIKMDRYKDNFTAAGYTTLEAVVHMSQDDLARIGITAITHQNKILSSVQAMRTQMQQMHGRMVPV

[4] = target: G-protein coupled receptor 55 (Homo sapiens, UniProt Q9Y2T6); experiment: GPR55 antagonists blocking LPI-driven arrestin recruitment, primary screen, imaging, U2OS, beta-arrestin-GFP, LPI agonist (AID 2013); assay type: functional;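 further: antagonist potency measured as reduced agonist-driven arrestin aggregation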
G-protein coupled receptor 55, sequence (Q9Y2T6 whole entry): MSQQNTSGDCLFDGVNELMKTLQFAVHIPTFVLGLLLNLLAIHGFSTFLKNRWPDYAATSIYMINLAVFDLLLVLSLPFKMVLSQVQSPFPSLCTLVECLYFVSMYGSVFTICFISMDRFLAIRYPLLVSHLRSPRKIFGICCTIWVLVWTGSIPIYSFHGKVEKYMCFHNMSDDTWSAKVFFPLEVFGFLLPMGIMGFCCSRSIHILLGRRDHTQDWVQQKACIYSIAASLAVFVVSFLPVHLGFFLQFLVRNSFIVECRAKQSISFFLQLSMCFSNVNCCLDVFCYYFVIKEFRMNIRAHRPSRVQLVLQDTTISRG

[5] = target: Eukaryotic translation initiation factor 4E (Mus musculus, UniProt P63073); experiment: eIF4E–eIF4G protein interaction inhibitors, dose response, biochemical, TR-FRET (AID 855); assay type: functional;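 further: potency for disrupting eIF4E binding to eIF4GI seen as loss of FRET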
Eukaryotic translation initiation factor 4E, sequence (P63073 whole entry): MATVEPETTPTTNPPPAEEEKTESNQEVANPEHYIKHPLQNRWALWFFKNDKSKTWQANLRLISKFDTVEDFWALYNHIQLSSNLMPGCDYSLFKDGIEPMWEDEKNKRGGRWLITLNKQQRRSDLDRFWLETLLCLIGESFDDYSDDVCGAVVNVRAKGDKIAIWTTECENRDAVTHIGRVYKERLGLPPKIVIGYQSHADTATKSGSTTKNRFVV

[6] = cytotoxicity in HPDE-C7 cells, cell-based, fluorescence, HTS (AID 430); assay type: functional; conditions: Homo sapiens
[7] = cytotoxicity in KRAS-transformed pancreatic duct cells, primary screen, cell-based, fluorescence, HTS (AID 431); assay type: functional; conditions: Homo sapiens;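 further: cell line used: HPDE-C7K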
[8] = target: T2, E3 ubiquitin-protein ligase XIAP (Homo sapiens, UniProt P98170); experiment: Counter Screen using XIAP-Bir3 for Chemical Antagonists of Bir1/2 domains of IAP-family anti-apoptotic proteins. [Related pubchem assays (depositor defined):AID1018, AID1449, AID1514, AID1638, AID1749, AID1750, AID488957, AID488963]
T2 sequence (P98170 whole entry): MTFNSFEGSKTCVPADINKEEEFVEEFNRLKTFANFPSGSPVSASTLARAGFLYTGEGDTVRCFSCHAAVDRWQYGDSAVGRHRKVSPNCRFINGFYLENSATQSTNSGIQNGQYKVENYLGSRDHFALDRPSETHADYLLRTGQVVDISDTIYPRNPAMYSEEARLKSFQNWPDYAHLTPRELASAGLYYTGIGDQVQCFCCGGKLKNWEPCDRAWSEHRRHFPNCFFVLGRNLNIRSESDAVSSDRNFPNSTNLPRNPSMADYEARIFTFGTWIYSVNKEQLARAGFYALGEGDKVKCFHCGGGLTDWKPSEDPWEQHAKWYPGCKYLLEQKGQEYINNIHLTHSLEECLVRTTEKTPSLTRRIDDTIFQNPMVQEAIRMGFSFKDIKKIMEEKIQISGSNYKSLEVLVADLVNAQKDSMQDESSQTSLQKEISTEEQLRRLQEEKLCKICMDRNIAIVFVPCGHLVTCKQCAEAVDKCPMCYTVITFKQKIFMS

[9] = target: T3, Mannose-6-phosphate isomerase (Homo sapiens, UniProt P34949); experiment: human PMI inhibitors, high substrate, primary screen, biochemical, fluorescence intensity, high mannose 6-phosphate (AID 1220)
T3 sequence (P34949 whole entry): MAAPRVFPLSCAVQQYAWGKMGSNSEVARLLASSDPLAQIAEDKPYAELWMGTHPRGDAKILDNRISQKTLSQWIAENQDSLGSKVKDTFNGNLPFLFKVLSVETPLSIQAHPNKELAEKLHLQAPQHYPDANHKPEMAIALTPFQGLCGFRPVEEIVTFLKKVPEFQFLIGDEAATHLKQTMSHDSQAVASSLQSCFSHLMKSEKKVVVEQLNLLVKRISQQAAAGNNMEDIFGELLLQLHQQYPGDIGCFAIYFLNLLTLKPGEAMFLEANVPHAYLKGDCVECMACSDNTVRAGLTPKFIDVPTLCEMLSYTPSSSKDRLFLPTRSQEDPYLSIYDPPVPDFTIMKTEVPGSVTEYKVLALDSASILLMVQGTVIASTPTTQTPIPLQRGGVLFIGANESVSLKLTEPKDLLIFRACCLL

[10] = target: T2, E3 ubiquitin-protein ligase XIAP; experiment: XIAP antagonists, biochemical, IAP family, fluorescence polarization (AID 1018); assay type: functional
[11] = target: T3, Mannose-6-phosphate isomerase; experiment: inhibitors of human PMI, primary screen, biochemical, fluorescence intensity, coupled assay (AID 1209)
[12] = target: Prothrombin (Homo sapiens, UniProt P00734); experiment: Thrombin 1536 HTS Dose Response Confirmation. [Related pubchem assays: 1046 (Thrombin 1536 HTS; hits were confirmed in this assay)]; assay type: functional
[13] = target: T4, Corticotropin-releasing factor receptor 2/Corticotropin-releasing factor-binding protein (Homo sapiens, UniProt P24387+Q13324); experiment: activators of CRF receptor 2 with binding protein – uHTS hits, confirmation (AID 602473); assay type: functional; conditions: read-out: EC50_Mean
T4 sequence (Q13324 whole entry): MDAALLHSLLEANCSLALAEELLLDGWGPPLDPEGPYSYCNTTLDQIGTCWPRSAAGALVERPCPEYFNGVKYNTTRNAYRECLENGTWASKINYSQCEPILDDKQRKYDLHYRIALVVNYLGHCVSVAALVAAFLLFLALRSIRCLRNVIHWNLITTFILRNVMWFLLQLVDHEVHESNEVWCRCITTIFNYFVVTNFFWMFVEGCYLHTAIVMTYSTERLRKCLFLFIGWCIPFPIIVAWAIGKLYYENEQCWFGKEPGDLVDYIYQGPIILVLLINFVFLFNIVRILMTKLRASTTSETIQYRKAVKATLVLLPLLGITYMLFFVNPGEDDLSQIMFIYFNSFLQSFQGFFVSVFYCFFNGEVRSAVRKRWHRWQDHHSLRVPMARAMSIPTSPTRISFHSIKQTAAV
T4 sequence (P24387 whole entry): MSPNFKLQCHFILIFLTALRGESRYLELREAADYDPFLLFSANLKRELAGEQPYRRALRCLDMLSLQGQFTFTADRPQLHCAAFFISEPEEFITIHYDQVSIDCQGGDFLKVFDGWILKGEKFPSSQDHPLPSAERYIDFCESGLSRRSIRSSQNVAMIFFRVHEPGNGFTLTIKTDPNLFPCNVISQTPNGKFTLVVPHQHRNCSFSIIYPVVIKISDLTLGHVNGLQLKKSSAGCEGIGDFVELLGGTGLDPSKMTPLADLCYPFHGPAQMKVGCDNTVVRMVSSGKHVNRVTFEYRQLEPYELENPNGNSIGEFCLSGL

[14] = tested on: H9c2; experiment: cells; assay type: functional, cell-based; conditions: Rattus norvegicus, H9c2, Myocardium;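 further: confirmatory concentration-response retest of ultra-high-throughput screening hits for modulation of myocardial damage; cell death induced by hydrogen peroxide oxidative stress; compound pretreatment for 60 min then peroxide exposure for 2 h; potency is for protecting the cells against peroxide damage rather than for killing them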

- IC50 [1]: 60.8 µM (inactive)
- AC50 [2]: 1.78 µM (inconclusive)
- IC50 [3]: 1.79 µM (active)
Structure (SMILES): CCOc1ccc(/C=C/C2=Cc3c(sc(NC(=O)CSc4nnc(N)[nH]4)c3C#N)C(C)(C)C2)cc1

- IC50 [4]: 1.49 µM (active)
Structure (SMILES): Cc1[nH]c2c(Br)cccc2c1[C@H]1[C@@H](CC#N)C1(C)C

- IC50 [5]: > 64 µM (inactive)
Structure (SMILES): CCOc1ccccc1NC(=O)C1CCN(S(=O)(=O)c2cccc3cccnc23)CC1

Structure (SMILES): COc1ccc(NC(=O)c2cc(-c3cc(C)ccc3O)[nH]n2)cc1Cl
- EC50 [6]: > 20 µM (not active)
- EC50 [7]: > 20 µM (not active)

- IC50 [8]: > 100 µM (inactive)
- IC50 [9]: > 50 µM (not active)
- IC50 [10]: > 100 µM (not active)
- IC50 [11]: 10.8 µM (active)
Structure (SMILES): CC[n+]1c(C)sc2c(C)cc(C)cc21

- IC50 [12]: 0.521 µM (active)
Structure (SMILES): O=C(c1cccc([N+](=O)[O-])c1)n1nc(-c2ccccc2)nc1NCc1ccccc1

- IC50 [12]: > 50 µM (not active)
- EC50 [13]: > 53 µM (inactive)
Structure (SMILES): Cc1ccc(-c2noc(CN3CCC(C(N)=O)CC3)n2)cc1

- IC50 [8]: > 100 µM (inactive)
- IC50 [10]: > 100 µM (not active)
Structure (SMILES): Fc1cccc(COc2ccccc2CNc2ccccc2)c1

Structure (SMILES): CCC(=O)N1CCN(c2ccc(NC(=O)c3cc4ccccc4o3)cc2Cl)CC1
- EC50 [6]: 11.5 µM (active)
- IC50 [1]: > 100 µM (inactive)
- EC50 [7]: 10.9 µM (active)
- IC50 [14]: 15.9 µM (active)
